Data: PubChem BioAssay (NCI)
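Compound exposure: 48 hours, 5 concentrations, 96-well plates. Here, GI50 denotes the concentration required for 50% inhibition of growth. Definition used: TGI = concentration required for complete inhibition of growth.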

Assays:
Experiment in all cases: growth of human tumour cells (NCI), 48 h
T-47D breast = test system: T-47D breast
MALME-3M melanoma = test system: MALME-3M melanoma
SF-539 CNS = test system: SF-539 CNS
IGROV1 ovarian = test system: IGROV1 ovarian
NCI-H226 lung = test system: NCI-H226 lung
SW-620 colon = test system: SW-620 colon
SK-MEL-28 melanoma = test system: SK-MEL-28 melanoma
SK-MEL-2 melanoma = test system: SK-MEL-2 melanoma
DLD-1 colon = test system: DLD-1 colon
LXFL 529 NSCLC = test system: LXFL 529 NSCLC

CC(C)[C@@H](C(=O)O[C@@H]1/C=C/C(=O)O[C@@H](C)CCC/C=C/[C@@H]2C[C@H](O)C[C@H]21)[N+](C)(C)C
GI50 (T-47D breast): > 100 µM
TGI (T-47D breast): > 100 µM
GI50 (MALME-3M melanoma): > 100 µM
TGI (MALME-3M melanoma): > 100 µM
GI50 (SF-539 CNS): > 100 µM
TGI (SF-539 CNS): > 100 µM
GI50 (IGROV1 ovarian): > 100 µM
TGI (IGROV1 ovarian): > 100 µM
GI50 (NCI-H226 lung): > 100 µM
TGI (NCI-H226 lung): > 100 µM
GI50 (SW-620 colon): > 100 µM
TGI (SW-620 colon): > 100 µM
GI50 (SK-MEL-28 melanoma): > 100 µM
TGI (SK-MEL-28 melanoma): > 100 µM
GI50 (SK-MEL-2 melanoma): > 100 µM
TGI (SK-MEL-2 melanoma): > 100 µM

CCC(=N\NC(N)=S)/C(C)=N/O
TGI (T-47D breast): > 100 µM
TGI (MALME-3M melanoma): > 100 µM
TGI (SF-539 CNS): > 100 µM
TGI (IGROV1 ovarian): > 100 µM
TGI (NCI-H226 lung): > 100 µM
TGI (SW-620 colon): > 100 µM
TGI (SK-MEL-28 melanoma): > 100 µM
TGI (SK-MEL-2 melanoma): > 100 µM

O=C1C[C@@H](c2ccccc2)NCCCCN(O)CCCN1
TGI (T-47D breast): > 100 µM
TGI (MALME-3M melanoma): > 100 µM
TGI (SF-539 CNS): > 100 µM
TGI (IGROV1 ovarian): > 100 µM
TGI (NCI-H226 lung): > 100 µM
TGI (SW-620 colon): > 100 µM
TGI (SK-MEL-28 melanoma): > 100 µM
TGI (SK-MEL-2 melanoma): > 100 µM

c1ccc(Cn2cc3c(c2)-c2oncc2CC3)cc1
GI50 (T-47D breast): 2.25 µM
TGI (T-47D breast): > 100 µM
GI50 (MALME-3M melanoma): 17.9 µM
TGI (MALME-3M melanoma): > 67.8 µM
GI50 (SF-539 CNS): 0.461 µM
TGI (SF-539 CNS): 2.9 µM
GI50 (IGROV1 ovarian): 1.27 µM
TGI (IGROV1 ovarian): > 100 µM
GI50 (NCI-H226 lung): 5.91 µM
TGI (NCI-H226 lung): 99.1 µM
GI50 (SW-620 colon): 0.428 µM
TGI (SW-620 colon): > 100 µM
GI50 (SK-MEL-28 melanoma): 4.27 µM
TGI (SK-MEL-28 melanoma): > 100 µM
GI50 (SK-MEL-2 melanoma): 5.29 µM
TGI (SK-MEL-2 melanoma): 87.5 µM

CN(C)CCCNC(=O)c1cc2c3ccccc3[nH]c2c2ncccc12
GI50 (T-47D breast): 19.4 µM
TGI (T-47D breast): 61.2 µM
GI50 (MALME-3M melanoma): 13 µM
TGI (MALME-3M melanoma): 27 µM
GI50 (SF-539 CNS): 10.8 µM
TGI (SF-539 CNS): 23.4 µM
GI50 (IGROV1 ovarian): 10.9 µM
TGI (IGROV1 ovarian): 70.9 µM
GI50 (NCI-H226 lung): 19.9 µM
TGI (NCI-H226 lung): > 100 µM
GI50 (SW-620 colon): 6.34 µM
TGI (SW-620 colon): 33.4 µM
GI50 (SK-MEL-28 melanoma): 14.3 µM
TGI (SK-MEL-28 melanoma): 31.1 µM
GI50 (SK-MEL-2 melanoma): 13.8 µM
TGI (SK-MEL-2 melanoma): 31.7 µM

CC1=CC(=O)c2cccc(NC3=NCCO3)c21
TGI (T-47D breast): > 100 µM
TGI (MALME-3M melanoma): 91.6 µM
TGI (SF-539 CNS): > 100 µM
TGI (IGROV1 ovarian): > 100 µM
TGI (NCI-H226 lung): 87.2 µM
TGI (SW-620 colon): > 100 µM
TGI (SK-MEL-28 melanoma): > 100 µM
TGI (SK-MEL-2 melanoma): > 100 µM

BrP(NC1CCCCCC1)(c1ccccc1)(c1ccccc1)c1ccccc1
TGI (T-47D breast): 7.76 µM
TGI (MALME-3M melanoma): 12.5 µM
TGI (SF-539 CNS): 34.4 µM
TGI (IGROV1 ovarian): 21.7 µM
TGI (NCI-H226 lung): 33 µM
TGI (SW-620 colon): 13.6 µM
TGI (SK-MEL-28 melanoma): 6.62 µM
TGI (SK-MEL-2 melanoma): 8.53 µM

O=C1C2Cc3ccccc3CN2C(=O)N1CN1CCN(CN2C(=O)C3Cc4ccccc4CN3C2=O)CC1 (configuration not stated)
TGI (MALME-3M melanoma): > 100 µM
TGI (SF-539 CNS): > 100 µM
TGI (IGROV1 ovarian): > 100 µM
TGI (NCI-H226 lung): > 100 µM
TGI (SW-620 colon): > 100 µM
TGI (SK-MEL-28 melanoma): > 100 µM
TGI (DLD-1 colon): > 100 µM
TGI (SK-MEL-2 melanoma): > 100 µM

CC(=O)OC1CCC2(C)C(CCC3C2CCC2(C)C(C4=CC(=O)OC4)CCC32)C1 (configuration not stated)
GI50 (T-47D breast): 13.1 µM
TGI (T-47D breast): 45.5 µM
GI50 (MALME-3M melanoma): 4.23 µM
TGI (MALME-3M melanoma): 23.1 µM
GI50 (SF-539 CNS): 2.68 µM
TGI (SF-539 CNS): 9.15 µM
GI50 (IGROV1 ovarian): 16.9 µM
TGI (IGROV1 ovarian): 53.2 µM
GI50 (NCI-H226 lung): 22.1 µM
TGI (NCI-H226 lung): 65.1 µM
GI50 (SW-620 colon): 32 µM
TGI (SW-620 colon): > 100 µM
GI50 (SK-MEL-28 melanoma): 4.75 µM
TGI (SK-MEL-28 melanoma): 22 µM
GI50 (SK-MEL-2 melanoma): 7.72 µM
TGI (SK-MEL-2 melanoma): 34.4 µM

O=C(CCCn1ccnc1[N+](=O)[O-])NCCn1cnc([N+](=O)[O-])c1
TGI (T-47D breast): > 100 µM
TGI (MALME-3M melanoma): > 100 µM
TGI (SF-539 CNS): > 100 µM
TGI (IGROV1 ovarian): > 100 µM
TGI (NCI-H226 lung): > 100 µM
TGI (SW-620 colon): > 100 µM
TGI (SK-MEL-28 melanoma): > 100 µM
TGI (SK-MEL-2 melanoma): > 100 µM

COc1cc(C2c3cc4c(cc3C3OC(=O)C2C3CO)OCO4)cc(OC)c1OC (configuration not stated)
GI50 (T-47D breast): 0.0181 µM
TGI (T-47D breast): > 100 µM
GI50 (MALME-3M melanoma): 0.0262 µM
TGI (MALME-3M melanoma): > 100 µM
GI50 (SF-539 CNS): < 0.0122 µM
TGI (SF-539 CNS): 0.0668 µM
GI50 (IGROV1 ovarian): 0.035 µM
TGI (IGROV1 ovarian): > 100 µM
GI50 (NCI-H226 lung): 0.0616 µM
TGI (NCI-H226 lung): > 100 µM
GI50 (SW-620 colon): 0.0244 µM
TGI (SW-620 colon): > 100 µM
GI50 (SK-MEL-28 melanoma): 8.68 µM
TGI (SK-MEL-28 melanoma): > 100 µM
GI50 (SK-MEL-2 melanoma): 0.0337 µM
TGI (SK-MEL-2 melanoma): > 100 µM

NC(=O)Nc1ccc2ncnc(Nc3ccc(Cl)cc3)c2c1
GI50 (T-47D breast): 10.2 µM
TGI (T-47D breast): > 85.1 µM
GI50 (MALME-3M melanoma): 28.2 µM
TGI (MALME-3M melanoma): > 77.9 µM
GI50 (SF-539 CNS): 30.7 µM
TGI (SF-539 CNS): > 100 µM
GI50 (IGROV1 ovarian): 9.06 µM
TGI (IGROV1 ovarian): 34.3 µM
GI50 (NCI-H226 lung): 22.9 µM
TGI (NCI-H226 lung): > 100 µM
GI50 (SW-620 colon): 42.8 µM
TGI (SW-620 colon): > 100 µM
GI50 (SK-MEL-28 melanoma): 30.2 µM
TGI (SK-MEL-28 melanoma): > 100 µM
GI50 (SK-MEL-2 melanoma): 18.5 µM
TGI (SK-MEL-2 melanoma): 46.7 µM

COc1cc(C/C=C/c2ccccc2)c(OC)cc1O
TGI (T-47D breast): 35.3 µM
TGI (MALME-3M melanoma): 42.4 µM
TGI (SF-539 CNS): 37.6 µM
TGI (IGROV1 ovarian): 37.2 µM
TGI (NCI-H226 lung): 79.3 µM
TGI (SW-620 colon): 43.3 µM
TGI (SK-MEL-28 melanoma): 35.3 µM
TGI (SK-MEL-2 melanoma): 52.3 µM

c1ccc(-c2n(Cc3ccc4ccccc4n3)c3ccccc3[n+]2Cc2ccc3ccccc3n2)cc1
GI50 (T-47D breast): 0.193 µM
TGI (T-47D breast): 1.96 µM
GI50 (MALME-3M melanoma): 0.336 µM
TGI (MALME-3M melanoma): 1.65 µM
GI50 (SF-539 CNS): 0.354 µM
TGI (SF-539 CNS): 1.4 µM
GI50 (IGROV1 ovarian): 0.244 µM
TGI (IGROV1 ovarian): 1.28 µM
GI50 (NCI-H226 lung): 0.424 µM
TGI (NCI-H226 lung): 2.64 µM
GI50 (SW-620 colon): 0.359 µM
TGI (SW-620 colon): 1.69 µM
GI50 (SK-MEL-28 melanoma): 0.359 µM
TGI (SK-MEL-28 melanoma): 1.44 µM
GI50 (SK-MEL-2 melanoma): 0.298 µM
TGI (SK-MEL-2 melanoma): 1.11 µM

CSc1nc(Cl)c(Br)c(Nc2c[nH]c(=O)[nH]c2=O)n1
TGI (T-47D breast): 40 µM
TGI (MALME-3M melanoma): 43.9 µM
TGI (SF-539 CNS): 45.2 µM
TGI (IGROV1 ovarian): 19.9 µM
TGI (NCI-H226 lung): 41.7 µM
TGI (SW-620 colon): > 100 µM
TGI (SK-MEL-28 melanoma): 95.8 µM
TGI (SK-MEL-2 melanoma): 44.4 µM

CCN(CC)c1ccc(/C=C/C(=O)c2cccc(NS(C)(=O)=O)c2)cc1
GI50 (T-47D breast): 4.29 µM
TGI (T-47D breast): > 100 µM
GI50 (MALME-3M melanoma): 5.79 µM
TGI (MALME-3M melanoma): > 100 µM
GI50 (SF-539 CNS): 4.94 µM
TGI (SF-539 CNS): > 100 µM
GI50 (IGROV1 ovarian): > 100 µM
TGI (IGROV1 ovarian): > 100 µM
GI50 (NCI-H226 lung): 74 µM
TGI (NCI-H226 lung): > 100 µM
GI50 (SW-620 colon): 3.27 µM
TGI (SW-620 colon): > 100 µM
GI50 (SK-MEL-28 melanoma): 43.5 µM
TGI (SK-MEL-28 melanoma): > 100 µM
GI50 (SK-MEL-2 melanoma): > 100 µM
TGI (SK-MEL-2 melanoma): > 100 µM

CSC(=S)N(C)NC(=O)c1cccc(C(=O)NN(C)C(=S)SC)n1
TGI (SF-539 CNS): 70.1 µM
TGI (IGROV1 ovarian): 49.9 µM
TGI (NCI-H226 lung): 81.5 µM
TGI (SW-620 colon): > 100 µM
TGI (SK-MEL-28 melanoma): > 100 µM
TGI (DLD-1 colon): > 100 µM
TGI (LXFL 529 NSCLC): > 100 µM

COc1ccc(CNc2nc3ccccc3nc2-c2cccs2)cc1OC
TGI (MALME-3M melanoma): > 100 µM
TGI (SF-539 CNS): > 100 µM
TGI (NCI-H226 lung): > 100 µM
TGI (SW-620 colon): > 100 µM
TGI (SK-MEL-28 melanoma): > 100 µM
TGI (SK-MEL-2 melanoma): > 100 µM
TGI (LXFL 529 NSCLC): > 100 µM

CCOC(=O)Nc1nc2c(F)c(F)c(F)cc2s1
GI50 (T-47D breast): 61.8 µM
TGI (T-47D breast): > 100 µM
GI50 (MALME-3M melanoma): > 100 µM
TGI (MALME-3M melanoma): > 100 µM
GI50 (SF-539 CNS): 28.7 µM
TGI (SF-539 CNS): 98.2 µM
GI50 (IGROV1 ovarian): > 100 µM
TGI (IGROV1 ovarian): > 100 µM
GI50 (NCI-H226 lung): 46 µM
TGI (NCI-H226 lung): > 100 µM
GI50 (SW-620 colon): > 100 µM
TGI (SW-620 colon): > 100 µM
GI50 (SK-MEL-28 melanoma): > 100 µM
TGI (SK-MEL-28 melanoma): > 100 µM
GI50 (SK-MEL-2 melanoma): 53.1 µM
TGI (SK-MEL-2 melanoma): > 100 µM
